# Assays:
# [1] = biological target: NRBP1 (Homo sapiens, UniProt Q9UHY1); assay: biochemical
# Description: (§1) Data were visualized for further analysis using Spotfire DXP.
# [2] = biological target: PSKH1 (Homo sapiens, UniProt P11801); assay: biochemical
# Description: as §1
# [3] = biological target: ATM (Homo sapiens, UniProt Q13315); assay: biochemical
# Description: as §1
# [4] = biological target: T1, SCYL1 (Homo sapiens, UniProt Q96KG9); assay: biochemical
# T1 sequence (Q96KG9 1-808): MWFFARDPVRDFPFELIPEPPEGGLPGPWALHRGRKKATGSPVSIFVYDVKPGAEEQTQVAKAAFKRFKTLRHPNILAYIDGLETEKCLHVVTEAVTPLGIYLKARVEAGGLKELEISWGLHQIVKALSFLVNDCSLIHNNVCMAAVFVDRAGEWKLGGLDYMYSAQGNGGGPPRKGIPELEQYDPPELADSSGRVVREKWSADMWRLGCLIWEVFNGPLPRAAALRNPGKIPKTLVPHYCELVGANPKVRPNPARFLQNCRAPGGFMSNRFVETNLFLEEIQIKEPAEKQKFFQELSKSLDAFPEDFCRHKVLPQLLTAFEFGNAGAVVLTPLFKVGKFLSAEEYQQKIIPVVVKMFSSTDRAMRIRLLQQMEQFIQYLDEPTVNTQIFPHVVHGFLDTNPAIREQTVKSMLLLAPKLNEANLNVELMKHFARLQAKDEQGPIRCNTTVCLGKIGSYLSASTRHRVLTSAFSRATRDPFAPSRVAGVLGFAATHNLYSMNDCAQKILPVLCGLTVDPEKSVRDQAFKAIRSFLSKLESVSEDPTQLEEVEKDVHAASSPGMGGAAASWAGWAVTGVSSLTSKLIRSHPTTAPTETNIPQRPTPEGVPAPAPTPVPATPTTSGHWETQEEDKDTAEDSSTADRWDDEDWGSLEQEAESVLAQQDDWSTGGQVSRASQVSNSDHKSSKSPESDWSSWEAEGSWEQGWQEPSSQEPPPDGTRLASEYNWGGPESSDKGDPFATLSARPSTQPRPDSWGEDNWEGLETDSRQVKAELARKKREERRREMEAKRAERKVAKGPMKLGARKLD
# Description: as §1
# [5] = biological target: T2, MAP2K5 (Homo sapiens, UniProt Q13163); assay: KAM-matrix competition in K562 lysate; assay type: binding; details: relative to 0 uM KAM = 0;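 also: median log10 fold change of treatment over DMSO control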
# T2 construct: endogenous in cells; host or cells: K562
# T2 sequence (Q13163 1-448): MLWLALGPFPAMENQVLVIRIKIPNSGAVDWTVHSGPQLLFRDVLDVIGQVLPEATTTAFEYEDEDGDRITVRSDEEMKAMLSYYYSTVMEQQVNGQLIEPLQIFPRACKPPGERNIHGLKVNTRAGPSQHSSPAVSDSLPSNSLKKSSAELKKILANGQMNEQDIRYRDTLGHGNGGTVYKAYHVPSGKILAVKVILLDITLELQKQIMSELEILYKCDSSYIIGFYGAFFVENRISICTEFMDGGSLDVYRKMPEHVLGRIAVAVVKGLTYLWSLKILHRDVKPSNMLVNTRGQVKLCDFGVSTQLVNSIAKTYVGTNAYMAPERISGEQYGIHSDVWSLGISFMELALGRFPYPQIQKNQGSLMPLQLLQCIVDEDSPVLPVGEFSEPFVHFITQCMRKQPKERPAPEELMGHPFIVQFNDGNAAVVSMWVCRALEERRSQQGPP
# Description: Supplement 12953_2017_125_MOESM1_ESM.zip/MS_Supp Info.xlsx, sheet "KAM" | column: 10 uM KAM; 1 uM KAM; 0.1 uM KAM; 0.01 uM KAM
# [6] = biological target: T3, RPS6KC1 (Homo sapiens, UniProt Q96S38); assay: KAM-matrix competition in K562 lysate; assay type: binding;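 as to 0.001 uM KAM: median log10 fold change of treatment over DMSO control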;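 as to 0.1 uM KAM: median log10 fold change of treatment over DMSO control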;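 as to 1 uM KAM: median log10 fold change of treatment over DMSO control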;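 as to 10 uM KAM: median log10 fold change of treatment over DMSO control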
# T3 construct: endogenous in cells; host or cells: K562 cell lysate
# T3 sequence (Q96S38 1-1066): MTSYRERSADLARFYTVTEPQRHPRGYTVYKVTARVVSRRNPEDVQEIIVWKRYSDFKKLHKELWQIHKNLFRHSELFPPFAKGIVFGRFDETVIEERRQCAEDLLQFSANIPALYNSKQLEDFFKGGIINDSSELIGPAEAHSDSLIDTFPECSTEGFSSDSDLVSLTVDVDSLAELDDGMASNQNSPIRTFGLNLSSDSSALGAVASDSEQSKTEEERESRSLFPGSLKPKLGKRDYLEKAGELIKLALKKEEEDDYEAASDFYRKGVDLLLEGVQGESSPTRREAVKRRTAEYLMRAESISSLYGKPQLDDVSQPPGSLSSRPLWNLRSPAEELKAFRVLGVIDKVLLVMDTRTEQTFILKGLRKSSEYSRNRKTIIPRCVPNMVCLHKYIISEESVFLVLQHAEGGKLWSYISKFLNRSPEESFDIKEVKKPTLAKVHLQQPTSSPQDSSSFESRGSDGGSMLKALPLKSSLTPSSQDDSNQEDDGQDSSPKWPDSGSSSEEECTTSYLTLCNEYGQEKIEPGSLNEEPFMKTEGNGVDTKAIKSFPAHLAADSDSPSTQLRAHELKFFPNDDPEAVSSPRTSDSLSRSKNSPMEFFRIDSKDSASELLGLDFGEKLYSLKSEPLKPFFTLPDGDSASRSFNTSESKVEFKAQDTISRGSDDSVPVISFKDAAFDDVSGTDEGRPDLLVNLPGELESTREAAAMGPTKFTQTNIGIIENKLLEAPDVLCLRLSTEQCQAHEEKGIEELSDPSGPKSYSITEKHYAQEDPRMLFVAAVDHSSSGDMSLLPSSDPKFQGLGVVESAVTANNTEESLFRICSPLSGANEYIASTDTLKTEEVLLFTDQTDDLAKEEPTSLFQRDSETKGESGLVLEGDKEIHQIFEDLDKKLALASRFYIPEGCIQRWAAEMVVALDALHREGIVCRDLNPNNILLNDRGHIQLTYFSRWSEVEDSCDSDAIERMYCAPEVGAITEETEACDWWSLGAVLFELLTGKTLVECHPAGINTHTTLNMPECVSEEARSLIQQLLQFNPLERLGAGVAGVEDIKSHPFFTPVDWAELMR
# Description: Supplement 12953_2017_125_MOESM1_ESM.zip/MS_Supp Info.xlsx, sheet "KAM" | column: 10 uM KAM; 1 uM KAM; 0.1 uM KAM; 0.001 uM KAM; RB50
# Chain of PSKH1 (P11801 whole entry): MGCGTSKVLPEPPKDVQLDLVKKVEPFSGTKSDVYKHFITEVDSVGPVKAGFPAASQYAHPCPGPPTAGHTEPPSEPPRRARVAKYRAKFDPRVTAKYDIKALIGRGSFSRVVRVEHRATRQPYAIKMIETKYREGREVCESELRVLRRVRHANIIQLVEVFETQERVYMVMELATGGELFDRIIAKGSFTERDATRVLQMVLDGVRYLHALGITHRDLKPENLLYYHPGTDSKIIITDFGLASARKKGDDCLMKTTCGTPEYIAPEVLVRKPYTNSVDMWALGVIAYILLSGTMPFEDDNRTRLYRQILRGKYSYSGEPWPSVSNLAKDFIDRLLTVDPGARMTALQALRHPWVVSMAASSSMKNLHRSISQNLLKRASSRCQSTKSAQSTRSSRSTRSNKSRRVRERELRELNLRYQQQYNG
# Chain of ATM (Q13315 whole entry): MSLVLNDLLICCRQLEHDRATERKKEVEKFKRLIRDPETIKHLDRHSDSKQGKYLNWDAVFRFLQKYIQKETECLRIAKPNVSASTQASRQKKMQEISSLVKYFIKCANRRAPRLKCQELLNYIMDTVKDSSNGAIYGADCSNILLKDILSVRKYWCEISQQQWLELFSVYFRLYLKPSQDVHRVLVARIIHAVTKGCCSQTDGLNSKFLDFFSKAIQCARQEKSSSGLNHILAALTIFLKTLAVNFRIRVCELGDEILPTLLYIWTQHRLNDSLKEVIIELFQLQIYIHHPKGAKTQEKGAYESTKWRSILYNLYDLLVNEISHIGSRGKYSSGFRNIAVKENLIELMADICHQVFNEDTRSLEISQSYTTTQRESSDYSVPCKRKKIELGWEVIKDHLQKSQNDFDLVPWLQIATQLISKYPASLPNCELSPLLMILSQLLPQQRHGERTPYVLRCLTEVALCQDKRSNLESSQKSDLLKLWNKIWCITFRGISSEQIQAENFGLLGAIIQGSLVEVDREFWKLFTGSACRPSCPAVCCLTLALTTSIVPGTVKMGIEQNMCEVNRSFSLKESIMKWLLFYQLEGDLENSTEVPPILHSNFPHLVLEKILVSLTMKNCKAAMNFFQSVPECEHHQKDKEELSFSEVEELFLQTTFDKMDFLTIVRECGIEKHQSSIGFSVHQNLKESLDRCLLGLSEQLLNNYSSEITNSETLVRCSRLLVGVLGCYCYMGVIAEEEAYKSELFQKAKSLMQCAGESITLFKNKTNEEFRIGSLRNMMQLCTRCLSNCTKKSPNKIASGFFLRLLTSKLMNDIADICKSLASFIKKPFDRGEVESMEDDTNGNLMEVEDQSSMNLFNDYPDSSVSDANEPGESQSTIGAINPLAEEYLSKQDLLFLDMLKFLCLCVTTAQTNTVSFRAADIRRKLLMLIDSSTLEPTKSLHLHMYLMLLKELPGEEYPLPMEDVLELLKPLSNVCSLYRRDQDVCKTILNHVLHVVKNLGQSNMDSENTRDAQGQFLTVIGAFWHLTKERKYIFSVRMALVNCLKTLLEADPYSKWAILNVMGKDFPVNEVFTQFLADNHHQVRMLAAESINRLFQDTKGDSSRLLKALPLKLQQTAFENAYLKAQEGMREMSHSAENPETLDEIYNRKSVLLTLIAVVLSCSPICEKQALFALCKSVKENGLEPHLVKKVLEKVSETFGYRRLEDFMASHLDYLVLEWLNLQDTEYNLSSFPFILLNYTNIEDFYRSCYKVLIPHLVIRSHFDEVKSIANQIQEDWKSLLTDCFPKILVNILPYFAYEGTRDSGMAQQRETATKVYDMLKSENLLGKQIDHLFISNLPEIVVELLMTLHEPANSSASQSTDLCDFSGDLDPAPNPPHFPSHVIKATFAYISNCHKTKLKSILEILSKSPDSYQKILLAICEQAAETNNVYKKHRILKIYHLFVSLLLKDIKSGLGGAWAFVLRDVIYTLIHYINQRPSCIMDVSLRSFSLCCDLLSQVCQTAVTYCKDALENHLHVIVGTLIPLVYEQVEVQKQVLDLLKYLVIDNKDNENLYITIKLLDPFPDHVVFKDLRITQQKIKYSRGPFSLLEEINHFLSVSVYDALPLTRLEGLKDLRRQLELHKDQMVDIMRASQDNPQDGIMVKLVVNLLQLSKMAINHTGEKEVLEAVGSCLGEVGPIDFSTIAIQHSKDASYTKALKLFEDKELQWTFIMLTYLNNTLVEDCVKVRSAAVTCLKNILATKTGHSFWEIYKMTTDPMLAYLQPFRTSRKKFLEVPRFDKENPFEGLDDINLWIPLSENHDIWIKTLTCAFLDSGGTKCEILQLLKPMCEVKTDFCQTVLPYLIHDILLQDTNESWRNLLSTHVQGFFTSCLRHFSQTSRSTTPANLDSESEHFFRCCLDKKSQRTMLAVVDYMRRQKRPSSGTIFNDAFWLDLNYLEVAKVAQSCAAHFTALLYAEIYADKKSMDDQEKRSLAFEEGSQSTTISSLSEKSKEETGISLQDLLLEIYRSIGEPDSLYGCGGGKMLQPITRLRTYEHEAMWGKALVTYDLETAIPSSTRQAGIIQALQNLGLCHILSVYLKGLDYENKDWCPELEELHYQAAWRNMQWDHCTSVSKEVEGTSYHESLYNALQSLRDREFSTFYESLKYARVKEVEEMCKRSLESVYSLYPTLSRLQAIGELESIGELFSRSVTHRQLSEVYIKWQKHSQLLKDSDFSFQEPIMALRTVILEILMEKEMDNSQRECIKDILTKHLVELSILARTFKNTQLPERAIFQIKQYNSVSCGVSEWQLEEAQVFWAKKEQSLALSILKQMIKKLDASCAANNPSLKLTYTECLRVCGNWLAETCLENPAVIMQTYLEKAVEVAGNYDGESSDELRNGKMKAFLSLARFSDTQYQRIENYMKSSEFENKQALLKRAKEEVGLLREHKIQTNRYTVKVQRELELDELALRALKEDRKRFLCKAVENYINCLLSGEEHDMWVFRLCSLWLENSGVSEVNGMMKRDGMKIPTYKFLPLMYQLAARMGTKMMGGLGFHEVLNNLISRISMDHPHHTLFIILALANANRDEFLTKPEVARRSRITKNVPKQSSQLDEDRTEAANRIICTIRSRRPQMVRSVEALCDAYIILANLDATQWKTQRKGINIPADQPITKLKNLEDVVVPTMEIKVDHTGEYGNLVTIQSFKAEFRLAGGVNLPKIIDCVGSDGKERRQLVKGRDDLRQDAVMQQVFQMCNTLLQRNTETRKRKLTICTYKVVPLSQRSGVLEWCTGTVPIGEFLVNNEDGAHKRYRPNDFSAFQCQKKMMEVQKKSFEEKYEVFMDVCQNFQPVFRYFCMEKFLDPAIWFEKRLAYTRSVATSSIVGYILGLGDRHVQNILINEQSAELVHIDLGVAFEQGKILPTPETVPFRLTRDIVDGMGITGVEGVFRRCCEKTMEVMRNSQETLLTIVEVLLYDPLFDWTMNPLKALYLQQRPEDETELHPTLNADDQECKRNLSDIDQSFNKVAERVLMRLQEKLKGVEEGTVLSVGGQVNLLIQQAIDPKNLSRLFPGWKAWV
# Chain of NRBP1 (Q9UHY1 whole entry): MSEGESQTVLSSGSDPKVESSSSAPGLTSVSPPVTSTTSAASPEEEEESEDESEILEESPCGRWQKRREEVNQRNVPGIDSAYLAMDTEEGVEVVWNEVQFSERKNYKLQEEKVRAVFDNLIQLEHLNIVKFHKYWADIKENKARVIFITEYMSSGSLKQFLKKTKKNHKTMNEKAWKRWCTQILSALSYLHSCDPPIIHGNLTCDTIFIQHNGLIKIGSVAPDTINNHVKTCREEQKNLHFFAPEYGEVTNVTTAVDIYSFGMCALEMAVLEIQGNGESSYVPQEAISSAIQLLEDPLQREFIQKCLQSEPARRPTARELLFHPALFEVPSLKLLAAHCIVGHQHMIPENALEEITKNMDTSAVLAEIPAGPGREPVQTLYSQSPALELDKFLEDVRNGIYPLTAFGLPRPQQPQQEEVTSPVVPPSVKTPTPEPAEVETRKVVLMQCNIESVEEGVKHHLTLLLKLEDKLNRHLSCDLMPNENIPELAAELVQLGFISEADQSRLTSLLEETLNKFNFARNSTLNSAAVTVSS
Compound,IC50 [1] [µM],IC50 [2] [µM],IC50 [3] [µM],IC50 [4] [µM],0.01 uM KAM [5],0.1 uM KAM [5],1 uM KAM [5],10 uM KAM [5],"IC50 ([6]; KAM 0.001-10 uM, read-out: RB50 (the source's name)) [µM]",0.001 uM KAM ([6]; relative to 0 uM KAM = 0),0.1 uM KAM ([6]; relative to 0 uM KAM = 0),1 uM KAM ([6]; relative to 0 uM KAM = 0),10 uM KAM ([6]; relative to 0 uM KAM = 0)
Cc1ccc(NC(=O)c2ccc(CN3CCN(C)CC3)cc2)cc1Nc1nccc(-c2cccnc2)n1 [Imatinib],> 10,> 10,> 10,> 10,–,–,–,–,–,–,–,–,–
N#CCc1ccc(Nc2nc(NCCCN)cc(Nc3cc(C4CC4)[nH]n3)n2)cc1 [KAM],–,–,–,–,0.01409,-0.1362,-0.4773,-0.5729,> 10,-0.005381,-0.07914,-0.09953,-0.2964
